For orientation: IC50 means the point on the concentration scale where inhibition reaches its midpoint.

Drawing on patent publication US20230078764A1 (Yumanity Therapeutics, Inc., priority 2019, published 2023), this text covers IC50 for 44 compounds.

The target in assay [1] is T1, human SCD5 (Homo sapiens, UniProt Q86SK9).
T1 construct: expressed in transfected cells; host or cells: yeast strain with OLE1 deleted, plasmid-borne human SCD5 (selected in SD-Ura)
T1 sequence (Q86SK9 1-330): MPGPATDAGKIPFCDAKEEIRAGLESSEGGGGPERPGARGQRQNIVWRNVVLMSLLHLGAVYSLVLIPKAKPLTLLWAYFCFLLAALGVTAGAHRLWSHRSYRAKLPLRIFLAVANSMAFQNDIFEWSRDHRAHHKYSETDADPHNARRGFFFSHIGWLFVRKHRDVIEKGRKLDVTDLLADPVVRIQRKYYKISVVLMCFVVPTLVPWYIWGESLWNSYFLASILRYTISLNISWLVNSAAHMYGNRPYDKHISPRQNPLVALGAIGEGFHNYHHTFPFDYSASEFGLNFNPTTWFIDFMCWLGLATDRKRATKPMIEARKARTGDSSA
The assay is described as follows: Growth inhibition of yeast strain expressing human SCD5 as sole desaturase (OLE1 deleted), OD600 readout. It is filed as cell-based.

Assay [2] addresses T2, human SCD1 (Homo sapiens, UniProt O00767).
T2 construct: expressed in transfected cells; host or cells: yeast strain with OLE1 deleted, plasmid-borne human SCD1 (selected in SD-Ura)
T2 sequence (O00767 1-359): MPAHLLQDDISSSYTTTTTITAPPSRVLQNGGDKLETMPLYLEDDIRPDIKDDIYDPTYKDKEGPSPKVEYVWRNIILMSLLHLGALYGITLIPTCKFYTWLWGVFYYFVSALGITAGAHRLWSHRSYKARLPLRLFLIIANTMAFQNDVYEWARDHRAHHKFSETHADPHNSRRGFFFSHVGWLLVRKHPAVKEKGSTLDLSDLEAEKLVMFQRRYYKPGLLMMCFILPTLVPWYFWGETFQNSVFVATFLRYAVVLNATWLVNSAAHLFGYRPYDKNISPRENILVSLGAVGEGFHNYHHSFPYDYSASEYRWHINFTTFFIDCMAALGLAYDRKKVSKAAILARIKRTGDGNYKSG
The assay is described as follows: Growth inhibition of yeast strain expressing human SCD1 as sole desaturase (OLE1 deleted), OD600 readout. It is filed as cell-based.

Where [3] appears, read: yeast strain expressing human SCD5 as sole desaturase, growth (OD600) after 40 h at 30° C., read-out: SCD5 IC50.
The mark [4] stands for this setting: yeast strain expressing human SCD1 as sole desaturase, growth (OD600) after 40 h at 30° C., read-out: SCD1 IC50.

The structures appear in SMILES notation. Where two headings read alike, the source gives them in different places. Bounds are passed on as bounds.

Regarding `Cn1nc(C(=O)Nc2ccc(CCOc3ccccc3)cn2)ccc1=O` [Compound 362], the results for the IC50 in assay [1] (setting [3]) and in assay [2] (setting [4]) were 14.5 µM and more than 45 µM, respectively.

For the compound `CN1N=C(C(=O)Nc2ccc(NCc3cccc(F)c3)cn2)CCC1=O` [Compound 281], the half-maximal inhibitory concentration (IC50) in assay [1] (setting [3]) was 2.75 µM; in assay [2] (setting [4]), more than 45 µM.

As to `Cc1nccc(C(=O)Nc2ccc(Cc3ccc(F)c(Cl)c3)cn2)n1` [Compound 244], the IC50 in assay [1] (setting [3]) and in assay [2] (setting [4]) was 0.01 µM each time.

Turning to `CN1N=C(C(=O)Nc2ccc(Cc3ccc(Cl)c(Cl)c3)cn2)CCC1=O` [Example 20, N-(5-(3,4-dichlorobenzyl)pyridin-2-yl)-1-methyl-6-oxo-1,4,5,6-tetrahydropyridazine-3-carboxamide], the IC50 in assay [1] (setting [3]) is 0.03 µM; in assay [2] (setting [4]), 0.22 µM.

Take `CCn1nc(C(=O)Nc2ccc(Cc3ccc(Cl)c(Cl)c3)cn2)ccc1=O` [Compound 70, N-(5-(3,4-dichlorobenzyl)pyridin-2-yl)-1-ethyl-6-oxo-1,6-dihydropyridazine-3-carboxamide]: the half-inhibitory concentration (IC50) came to 0.49 µM in assay [1] (setting [3]) and 2.9 µM in assay [2] (setting [4]).

For the compound `Cn1ccc(C(=O)Nc2ccc(Cc3cc(F)cc(F)c3)cn2)nc1=O` [Compound 590], the results for the 50% inhibitory concentration (IC50) in assay [1] (setting [3]) and in assay [2] (setting [4]) were 0.47 µM and 30 µM, respectively.

Consider `Cn1cc(NC(=O)c2ccc(Cc3cccc(F)c3)cn2)ccc1=O` [Compound 357], for which the figures for the IC50 in assay [1] (setting [3]) and in assay [2] (setting [4]) were 0.05 µM and 4.06 µM, respectively.

Turning to `CN1N=C(C(=O)Nc2ccc(COc3cccc(Cl)c3)cn2)CCC1=O` [Compound 261], the figures for the IC50 in assay [1] (setting [3]) and in assay [2] (setting [4]) were 0.05 µM and 1.42 µM, respectively.

Turning to `Cn1cc(NC(=O)c2ncc(Cc3ccc(F)c(F)c3)cc2F)ccc1=O` [Compound 625], the IC50 is 0.31 µM in assay [1] (setting [3]) and 4.8 µM in assay [2] (setting [4]).

Turning to `Cc1ccc(C(=O)Nc2ccc(Cc3ccc(F)c(F)c3)cn2)nn1` [Compound 241], the IC50 was determined as 0.07 µM in assay [1] (setting [3]) and 2.03 µM in assay [2] (setting [4]).

`CN1N=C(C(=O)Nc2ccc(Oc3ccc(Cl)cc3)cc2)CCC1=O` [Compound 158, N-(4-(4-chlorophenoxy)phenyl)-1-methyl-6-oxo-1,4,5,6-tetrahydropyridazine-3-carboxamide]: the IC50 in assay [1] (setting [3]) was found to be 6.19 µM; in assay [2] (setting [4]), 10.5 µM.

Consider `Cn1cc(NC(=O)c2ccc(Cc3ccc(F)c(F)c3)cn2)ccc1=O` [Compound 313], for which the figures for the IC50 in assay [1] (setting [3]) and in assay [2] (setting [4]) were 0.02 µM and 1.86 µM, respectively.

For the compound `Cn1nc(NC(=O)c2ccc(Cc3cccc(Cl)c3)nn2)ccc1=O` [Compound 254], the IC50 was 3.53 µM in assay [1] (setting [3]) and more than 45 µM in assay [2] (setting [4]).

Turning to `O=C(Nc1ccc(Cc2cccc(F)c2)cn1)c1ncc(CO)cn1` [Compound 544], the figures for the concentration for half-maximal inhibition (IC50) in assay [1] (setting [3]) and in assay [2] (setting [4]) were 0.96 µM and 0.01 µM, respectively.

For `Cc1cncc(Cc2ccc(NC(=O)C3=NN(C)C(=O)CC3)nc2)c1` [Compound 437], the IC50 in assay [1] (setting [3]) and in assay [2] (setting [4]) was more than 45 µM each time.

On to `CC(O)c1ccc(C(=O)Nc2ccc(Cc3ccc(F)c(F)c3)cn2)nn1` (stereo not shown) [Compound 530], for which the IC50 amounted to 0.19 µM in assay [1] (setting [3]) and 0.16 µM in assay [2] (setting [4]).

As for `Cn1nc(C(=O)Nc2ccc(Cc3ccc(C(F)(F)F)cc3)cn2)ccc1=O` [Example 39, 1-methyl-6-oxo-N-(5-(4-(trifluoromethyl)benzyl)pyridin-2-yl)-1,6-dihydropyridazine-3-carboxamide], the IC50 was 0.92 µM in assay [1] (setting [3]) and more than 45 µM in assay [2] (setting [4]).

Regarding `N#Cc1cc(F)cc(Cc2ccc(NC(=O)c3ccc(C#N)nc3)nc2)c1` [Compound 535], the IC50 in assay [1] (setting [3]) was 0.48 µM; in assay [2] (setting [4]) it was more than 45 µM.

Regarding `Cn1nc(C(=O)NCc2ccc(Cc3cccc(F)c3)cn2)ccc1=O` [Compound 411], the IC50 in assay [1] (setting [3]) and in assay [2] (setting [4]) was more than 45 µM in each case.

`Cn1cc(C(=O)Nc2ccc(COc3ccc(F)c(Cl)c3)cn2)ccc1=O` [Compound 266]: the IC50 in assay [1] (setting [3]) amounted to 0.4 µM; in assay [2] (setting [4]), 1.85 µM.

Take `Cn1cc(C(=O)Nc2ccc(Cc3cc(F)ccc3F)cn2)ccc1=O` [Compound 565]: the IC50 in assay [1] (setting [3]) was found to be 0.02 µM; in assay [2] (setting [4]), 2.7 µM.

For `Cn1cc(-c2ccc(NC(=O)Cc3cccc(F)c3)nc2)ccc1=O` [Compound 457], the 50% inhibitory concentration (IC50) in assay [1] (setting [3]) and in assay [2] (setting [4]) was more than 45 µM each time.

In the case of `CN1N=C(C(=O)Nc2nc(Cc3cccc(F)c3)cs2)CCC1=O` [Compound 406], the concentration for half-maximal inhibition (IC50) in assay [1] (setting [3]) and in assay [2] (setting [4]) was more than 45 µM throughout.

For `Cn1cc(C(=O)Nc2ccc(Cc3cc(F)cc(F)c3)cn2)ccc1=O` [Compound 59, N-(5-(3,5-difluorobenzyl)pyridin-2-yl)-1-methyl-6-oxo-1,6-dihydropyridine-3-carboxamide], the 50% inhibitory concentration (IC50) turned out to be 0.01 µM in assay [1] (SCD5 IC50) and 0.31 µM in assay [2] (SCD1 IC50).

As to `Cn1nc(C(=O)Nc2ccc(Cc3cc(F)ccc3F)cn2)ccc1=O` [Compound 539], the concentration for half-maximal inhibition (IC50) in assay [1] (setting [3]) is 0.17 µM; in assay [2] (setting [4]) it was 3.5 µM.

For the compound `CCn1nc(C(=O)Nc2ccc(Cc3cccc(F)c3)nn2)ccc1=O` [Compound 199, 1-ethyl-N-(6-(3-fluorobenzyl)pyridazin-3-yl)-6-oxo-1,6-dihydropyridazine-3-carboxamide], the IC50 in assay [1] (setting [3]) was 5.8 µM; in assay [2] (setting [4]), more than 45 µM.

Take `Cn1nc(C(=O)Nc2ccc(Cc3cc(Cl)cc(C#N)c3)cn2)ccc1=O` [Compound 626]: the concentration for half-maximal inhibition (IC50) in assay [1] (setting [3]) is 0.014 µM; in assay [2] (setting [4]), more than 45 µM.

With `CN1N=C(C(=O)Nc2ncc(Cc3cccc(Cl)c3)cc2F)CCC1=O` [Compound 124, N-(5-(3-chlorobenzyl)-3-fluoropyridin-2-yl)-1-methyl-6-oxo-1,4,5,6-tetrahydropyridazine-3-carboxamide], the IC50 in assay [1] (setting [3]) is 10 µM; in assay [2] (setting [4]), more than 45 µM.

In the case of `Cn1nc(C(=O)Nc2ccc(Cc3cc(F)cc(Cl)c3)nn2)ccc1=O` [Compound 384], the IC50 in assay [1] (setting [3]) and in assay [2] (setting [4]) was more than 45 µM in each case.

On to `Cn1nc(C(=O)Nc2nc(Br)c(Cc3cccc(F)c3)s2)ccc1=O` [Compound 317], for which the 50% inhibitory concentration (IC50) in assay [1] (setting [3]) was 0.1 µM; in assay [2] (setting [4]) it was 0.98 µM.

On to `Cn1nc(C(=O)Nc2ccc(CCOc3cccc(F)c3)cn2)ccc1=O` [Compound 360], for which the half-maximal inhibitory concentration (IC50) in assay [1] (setting [3]) came to 6.59 µM; in assay [2] (setting [4]), 32.6 µM.

Consider `Cn1nc(C(=O)Nc2nnc(Cc3ccc(F)c(Cl)c3)s2)ccc1=O` [Compound 347], for which the concentration for half-maximal inhibition (IC50) is 0.71 µM in assay [1] (setting [3]) and 0.68 µM in assay [2] (setting [4]).

With `CN1N=C(C(=O)Oc2ccc(NCc3cccc(F)c3)nc2)CCC1=O` [Compound 433], the IC50 in assay [1] (setting [3]) and in assay [2] (setting [4]) was more than 45 µM throughout.

For `CN1N=C(C(=O)Nc2ccc(Cc3cccc(C4CC4)c3)nn2)CCC1=O` [Compound 187, N-(6-(3-cyclopropylbenzyl)pyridazin-3-yl)-1-methyl-6-oxo-1,4,5,6-tetrahydropyridazine-3-carboxamide], the IC50 in assay [1] (setting [3]) was 6.51 µM; in assay [2] (setting [4]) it was more than 45 µM.

`N#Cc1cc(C(=O)Nc2ccc(Cc3cc(F)cc(F)c3)cn2)cnn1` [Compound 662]: the IC50 in assay [1] (setting [3]) amounted to 0.18 µM; in assay [2] (setting [4]), 0.3 µM.

Consider `O=C(Nc1ccc(Cc2cccc(Cl)c2)cn1)c1ccc(CO)nn1` [Compound 122, N-(5-(3-chlorobenzyl)pyridin-2-yl)-6-(hydroxymethyl)pyridazine-3-carboxamide], for which the IC50 in assay [1] (setting [3]) and in assay [2] (setting [4]) was 0.01 µM throughout.

For `COc1cccc(Cc2ccc(NC(=O)C3=NN(C)C(=O)CC3)nc2)c1` [Example 30, N-(5-(3-methoxybenzyl)pyridin-2-yl)-1-methyl-6-oxo-1,4,5,6-tetrahydropyridazine-3-carboxamide], the IC50 in assay [1] (setting [3]) is 3.53 µM; in assay [2] (setting [4]), more than 45 µM.

As to `CO[C@@H]1CN[C@H](C(=O)Nc2ccc(Cc3cccc(F)c3)cn2)C1` [Compound 447], the half-inhibitory concentration (IC50) in assay [1] (setting [3]) and in assay [2] (setting [4]) was more than 45 µM each time.

With `N#Cc1cc(C(=O)Nc2ccc(Cc3cc(F)cc(F)c3)cn2)cnc1C#N` [Compound 612], the values for the IC50 in assay [1] (setting [3]) and in assay [2] (setting [4]) were 1.2 µM and 4.4 µM, respectively.

As to `Cn1nc(C(=O)Nc2ccc(Cc3cccc(F)c3)cn2)cc1CO` [Compound 560], the IC50 was determined as 0.022 µM in assay [1] (setting [3]) and 0.25 µM in assay [2] (setting [4]).

For the compound `CC(O)c1ccc(C(=O)Nc2ccc(Cc3cc(F)cc(F)c3)cn2)cn1` (stereo not shown) [Compound 513], the IC50 is 0.17 µM in assay [1] (setting [3]) and 0.77 µM in assay [2] (setting [4]).

Consider `O=C(Nc1ccc(Cc2cccc(Cl)c2)cn1)c1ccc2nccn2n1` [Compound 415], for which the concentration for half-maximal inhibition (IC50) in assay [1] (setting [3]) and in assay [2] (setting [4]) was more than 45 µM each time.

Take `Cn1nc(C(=O)Nc2ccc(Cc3ccc(F)c(F)c3Cl)cn2)ccc1=O` [Compound 571]: the IC50 in assay [1] (setting [3]) turned out to be 0.01 µM; in assay [2] (setting [4]), 0.52 µM.

With `O=C(Nc1ccc(Cc2ccc(F)cc2)cn1)c1ccc(CO)nc1` [Compound 116, N-(5-(4-fluorobenzyl)pyridin-2-yl)-6-(hydroxymethyl)nicotinamide], the 50% inhibitory concentration (IC50) in assay [1] (setting [3]) and in assay [2] (setting [4]) was 0.01 µM in each case.
